What was measured:
[1] = test system: S. aureus ATCC 35556; assay: MBIC/MIC secondary assay; type: cell-based, Staphylococcus aureus; conditions: S. aureus ATCC 35556, Table 2; for MIC: Staphylococcus aureus, ATCC35556, read-out: MIC
[2] = test system: S. epidermidis 18972; assay: MBIC/MIC secondary assay (crystal violet biofilm staining / OD600 growth); type: cell-based, Staphylococcus epidermidis; conditions: S. epidermidis 18972, Table 2; for MBIC: lowest concentration inhibiting biofilm formation ≧80%; for MIC: Staphylococcus epidermidis, lowest concentration inhibiting growth ≧80%, read-out: MIC
Procedure: Assays for detecting and measuring bacterial biofilm formation are known in the art. An example of a biofilm formation assay useful in detecting and characterizing biofilm inhibitor compounds is described in Example 1, infra. Briefly, bacterial cells are inoculated into growth medium in individual wells of a 96-well assay plate in the presence or absence of a compound (known biofilm inhibitor or test compound). After incubation for a specified time, growth medium and non-biofilm bacterial cells are removed from each of the wells. The bacterial cells in any biofilms that are adhered to the surface of a well are fixed by addition of ethanol. The ethanol is removed, and the fixed biofilm bacteria cells are stained with crystal violet (CV). The intensity of CV staining is directly correlated with bacterial biofilm formation and is measured in the wells by reading the optical density at 600 nm (OD600). The difference in biofilm formation between untreated control and treated cultures provides an indication of relative biofilm inhibition activity (anti-biofilm activity). Use of different concentrations of an inhibitor in multiple and otherwise duplicate cultures permits determination of a compound's Minimal Biofilm Inhibitory Concentration (MBIC), which is defined herein as the lowest concentration of a compound that inhibits biofilm formation by at least 80% (i.e., ≧80%) compared to untreated control cultures.
A higher throughput was achieved by formatting the assay for use in flat-bottomed 96-well assay plates (Costar 3590 assay plates, Corning Life Sciences, Lowell, Mass.). The biofilm cultures grew on the bottoms of each well in a surface attached mode. In each assay plate, columns 1 and 12 contained untreated cultures, which served as negative controls (0% biofilm inhibition). Each of the assay wells in columns 2-11 contained a unique small molecule from the Microbiotix Screening Library (MSL) at a final concentration of 100 μM. Assay plates were inoculated with 200 μl/well of a culture of Staphylococcus pidermidis 18972 in 0.5×Tryptic Soy Broth (TSB; Becton Dickinson, Franklin Lakes, N.J.) in which the concentration of glucose was adjusted to 0.25% (w/v). The bacterial inocula were prepared by making a 1:100 dilution of an overnight culture grown in TSB in the media used for the screen. After inoculation, assay plates were sealed with foil tape and incubated at 37° C. for 18-20 hours (h). The optical density at 600 nm (OD600) was measured for each well using a VICTOR2V™ multiplate reader (Perkin Elmer, Waltham, Mass.) in order to quantify overall bacterial growth. The assay plates were processed to remove bacterial growth media and non-biofilm cells from the bottom of each assay well. This was accomplished by using a BioTek ELx405™ plate washer (BioTek Instruments, Inc., Winooski, Vt.). Biofilm bacteria were fixed by addition of 50 μl of 95% ethanol for 30 minutes (min). The ethanol was removed, and the fixed biofilm cultures were stained with 50 μl of 0.06% crystal violet (CV) for 60 min. Excess CV was removed by repeated washes using the BioTek ELx405™ plate washer. The amount of CV bound to each assay well was quantified by measuring OD600 using a VICTOR2V™ plate reader (Perkin Elmer).
A secondary assay provided a quantitative measure of both anti-biofilm activity and antibacterial activity in terms of the Minimal Biofilm Inhibitory Concentration (MBIC) and the Minimal Inhibitory Concentration (MIC), respectively. The MBIC and MIC are defined as the lowest compound concentrations that inhibit biofilm formation and bacterial growth, respectively, by at least 80% (i.e., ≧80%). The MBIC/MIC assay is formatted in a manner that is similar to the Microbroth dilution assays described by the Clinical and Laboratory Standards Institute (CLSI; formerly NCCLS) in protocol M7-A7. The growth conditions were optimized for biofilm growth in 96-well assay plates such that the resulting CV staining was within the linear range of detection. […]

[3] = In vitro cytotoxicity assay (CC50), Alamar Blue; type: cell-based; conditions: human, HeLa cells, 10% Fetal Bovine Serum
Procedure: Validated hits were tested for general cytotoxicity against a mammalian cell line. In this assay, an assay plate was seeded with an immortalized human cell line (HeLa) and exposed to a series of two-fold dilutions of each test compound for 72 hours in standard media containing 10% Fetal Bovine Serum. After exposure to the compounds, the cellular viability was assessed using Alamar Blue™ (AccuMed International, Inc.), an oxidation-reduction indicator that is useful for quantitatively measuring cell-mediated cytotoxicity. Alamar Blue reduction was quantified using fluorescence measurements, and the data were analyzed using a two-parameter curve-fitting program (Assay Explorer, Elsevier MDL, San Rafael, Calif.) to determine the CC50 value, i.e., the compound concentration that decreases cellular viability by 50%. Compounds with CC50/MBIC≧50 were given highest priority. Validated hits that met the criteria for high priority were re-ordered from the original vendor and re-tested.

Row | MIC [1] | MIC [2] | SMILES | MBIC [1] | MBIC [2] | CC50 at 72 h [3]
1 | ≥ 100 µM | ≥ 100 µM | COc1ccc(C2=C/C(=C/c3ccc(O)c(OC)c3)C(=O)O2)c(OC)c1 [MSL-051097, 3-(4-hydroxy-3-methoxybenzylidene)-5-(2,4-dimethoxyphenyl)furan-2(3H)-one] | 6.25 µM | 25 µM | 29.4 µM
2 | ≥ 100 µM | ≥ 100 µM | CCOc1cc(/C=C2\SC(=S)N(c3ccc(Br)cc3)C2=O)ccc1O [MSL-049293, 3-(4-bromophenyl)-5-(3-ethoxy-4-hydroxybenzylidene)-2-thioxothiazolidin-4-one] | 1.5625 µM | 12.5 µM | ≥ 100 µM
3 | ≥ 100 µM | ≥ 100 µM | COc1cc(/C=C2\SC(=S)N(c3cccc(Cl)c3)C2=O)cc(Br)c1O [MSL-049731, 3-(3-chlorophenyl)-5-(3-bromo-4-hydroxy-5-methoxybenzylidene)-2-thioxothiazolidin-4-one] | 6.25 µM | 25 µM | –

— US20110098323A1, “INHIBITORS OF BACTERIAL BIOFILM FORMATION” (MICROBIOTIX, INC., priority 2009, published 2011)
